Test results taken from patent US5536623A, “Method of producing highly water-soluble cyclodextrin complex” (Takeda Chemical Industries, Ltd., priority 1992, dated 1996).
Read-outs that look alike come from different tables or passages of the source.

Legend:
[1] = assay type: physicochemical; conditions: water
Method: To a 5 ml aqueous solution containing 1000 mg of maltosyl-β-cyclodextrin (hereinafter abbreviated G2βCyD) was added 250 mg of 6-O-(N-chloroacetylcarbamoyl) fumagillol (hereinafter abbreviated TNP-470), followed by stirring at 25° C. for 8 hours to obtain a solution. The undissolved portion of TNP-470 was filtered out, and the filtrate was placed in a vial and lyophilized in accordance with a conventional method to yield a powder. To the entire amount of the powder thus obtained, 5 ml of water was added to yield a uniform aqueous solution. Separately, in accordance with the conventional method, 110 mg of G2βCyD was dissolved in 5 ml of water; 250 mg of TNP-470 was added to this solution, followed by stirring at 25° C. for 8 hours. Then, the solution was filtered. The above uniform solution and the filtered solution were assayed for TNP-470 by high performance liquid chromatography (HPLC). Also, the saturation solubility of TNP-470 alone was determined by HPLC.
(§1) Column: ODS, YMC-Pack A-312 (Yamamura Chemical Laboratories)
(§2) Mobil phase: water-acetonitrile (1:1 v/v)
(§3) Detector: Ultra violet detector (wavelength: 210 nm)

[2] = assay type: physicochemical; conditions: water; remark: listed apart in the source
Method: as §1, §2, §3
To a 5 ml aqueous solution containing 500 mg of glucosyl-β-cyclodextrin (hereinafter abbreviated G1[CyD) was added 250 mg of TNP-470, followed by stirring at 25° C. for 8 hours to obtain a solution. The resulting aqueous solution was filtered and lyophilized in accordance with the standard method to yield a powder. To the entire amount of the powder thus obtained, 5 ml of water was added to yield a uniform aqueous solution. Separately, in accordance With the conventional method, 100 mg of G1βCyD was dissolved in 5 ml of water; 250 mg of TNP-470 was added to this solution, followed by stirring at 25° C. for 8 hours. Then, the solution was filtered. The above uniform solution and the filtered solution were assayed for TNP-470 by HPLC method as described in Comparative Example 1. Also, the saturation solubility of TNP-470 alone was determined by HPLC.

[3] = Storage stability at 40° C., TNP-470 quantified by HPLC (Example 6); assay type: physicochemical; conditions: powder, 730 h
Method: as §1, §2, §3
To a 5 ml aqueous solution containing 726 mg of maltosyl-β-cyclodextrin was added 100 mg of TNP-470, followed by stirring at 25° C. for 180 minutes to yield a solution. This aqueous solution was filtered, and 5 ml of the filtrate was placed in a vial and lyophilized to yield a powder. The stability of this powder and that of TNP-470 alone were compared after storage at 40° C. for i month. TNP-470 was quantified by HPLC.

Question: For `CO[C@@H]1[C@H](OC(=O)NC(=O)CCl)CC[C@]2(CO2)[C@H]1[C@@]1(C)O[C@@H]1CC=C(C)C` [TNP-470, 6-O-(N-chloroacetylcarbamoyl) fumagillol], which “Comparison of Solubility (TNP-470)” value [1] is on record?
Answer: 1900 µg/mL

Question: And the “Comparison of Solubility (TNP-470)” value [2]?
Answer: 1900 µg/mL

Question: And the “Stability, Percent residence (TNP-470)” value [3]?
Answer: 68%
